Experimental data reported in ChEMBL document CHEMBL4321865, “Discovery of Novel Inhibitors of LpxC Displaying Potent in Vitro Activity against Gram-Negative Bacteria” (J Med Chem, 2020).
≈ marks a conversion by molar mass, not a printed value.

Legend:
[1] = test system: Pseudomonas aeruginosa; experiment: microbe, parasite or virus in culture; details: ATCC 27853
Description: Antimicrobial activity against Pseudomonas aeruginosa ATCC 27853 by broth microdilution method

[2] = test system: T1, UDP-3-O-acyl-N-acetylglucosamine deacetylase (Escherichia coli K-12), P0A725 [C125S]
T1 sequence (whole entry): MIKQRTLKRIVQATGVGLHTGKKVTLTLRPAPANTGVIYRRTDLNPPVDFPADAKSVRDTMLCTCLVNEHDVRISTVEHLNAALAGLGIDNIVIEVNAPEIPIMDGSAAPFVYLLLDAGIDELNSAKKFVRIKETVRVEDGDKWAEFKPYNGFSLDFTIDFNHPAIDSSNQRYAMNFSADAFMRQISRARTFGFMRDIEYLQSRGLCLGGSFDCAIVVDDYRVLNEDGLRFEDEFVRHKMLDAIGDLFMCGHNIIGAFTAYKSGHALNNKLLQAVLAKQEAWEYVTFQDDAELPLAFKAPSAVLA

[3] = test system: T2, UDP-3-O-acyl-N-acetylglucosamine deacetylase (Pseudomonas aeruginosa (strain ATCC 15692 / PAO1 / 1C / PRS 101 / LMG12228)), P47205 [C40S]
T2 sequence (whole entry): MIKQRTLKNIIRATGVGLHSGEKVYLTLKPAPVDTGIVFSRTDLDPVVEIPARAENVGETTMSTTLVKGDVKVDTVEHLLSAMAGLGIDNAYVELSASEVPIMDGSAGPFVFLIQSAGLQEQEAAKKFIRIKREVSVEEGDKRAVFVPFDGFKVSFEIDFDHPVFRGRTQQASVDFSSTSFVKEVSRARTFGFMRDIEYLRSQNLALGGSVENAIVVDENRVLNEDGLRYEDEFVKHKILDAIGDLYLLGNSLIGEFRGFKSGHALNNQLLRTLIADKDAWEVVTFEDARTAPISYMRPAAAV

[4] = test system: Escherichia coli; experiment: microbe, parasite or virus in culture; details: ATCC 25922
Description: Antibacterial activity against wild-type Escherichia coli ATCC 25922 by broth microdilution method

[5] = test system: Pseudomonas aeruginosa; experiment: Antimicrobial activity against Pseudomonas aeruginosa PA2616 harboring delta mexAB-OprM mutant by broth microdilution method; assay type: functional
[6] = test system: Klebsiella pneumoniae; experiment: microbe, parasite or virus in culture; details: T 6474
Description: Antibacterial activity against multi-drug resistant Klebsiella pneumoniae T 6474 by broth microdilution method

[7] = test system: Pseudomonas aeruginosa; experiment: microbe, parasite or virus in culture; details: PAO1
Description: Antimicrobial activity against wild-type Pseudomonas aeruginosa PAO1 by broth microdilution method

[8] = physchem; details: DMSO, pH 7
Description: Solubility of the compound in DMSO at pH 7 incubated for 24 hrs by LC-UV method

[9] = physchem; details: n-octanol/phosphate buffered saline, pH 7.4
Description: n-Octanol/phosphate buffered saline partition coefficient, log D of the compound at pH 7.4 by LC-UV method

[10] = physchem; details: DMSO, pH 9
Description: Solubility of the compound in DMSO at pH 9 incubated for 24 hrs by LC-UV method

[11] = test system: Escherichia coli; experiment: Antibacterial activity against Escherichia coli infected in cyclophosphamide-induced NMRI/ICR CD-1 mouse model of neutropenic thigh infection assessed as reduction in thigh bacterial load at 150 mg/kg, sc measured after 22 hrs relative to control; assay type: functional
[12] = mouse, plasma, 1 µM
Description: Protein binding in mouse plasma assessed as fraction unbound at 1 uM by equilibrium dialysis method

[13] = Cmax in NMRI/ICR CD-1 mouse at 50 mg/kg, sc by LC-MS/MS analysis; assay type: ADME, organism-based; parameters: dose 50 mg/kg, route subcutaneous; details: in vivo
[14] = test system: Escherichia coli; experiment: Antibacterial activity against Escherichia coli infected in cyclophosphamide-induced NMRI/ICR CD-1 mouse model of neutropenic thigh infection assessed as reduction in thigh bacterial load at 450 mg/kg, sc administered as single dose measured after 22 hrs relative to control; assay type: functional
[15] = in vivo; details: NMRI/ICR CD-1, mouse, sc, 50 mg/kg
[16] = Tmax in NMRI/ICR CD-1 mouse at 50 mg/kg, sc by LC-MS/MS analysis; assay type: ADME, organism-based; details: in vivo
[17] = test system: Escherichia coli; experiment: Antibacterial activity against Escherichia coli infected in cyclophosphamide-induced NMRI/ICR CD-1 mouse model of neutropenic thigh infection assessed as reduction in thigh bacterial load at 112.54 mg/kg, sc administered at 5.5 hrs interval for 4 times relative to control; assay type: functional
[18] = Apparent clearance in NMRI/ICR CD-1 mouse at 50 mg/kg, sc by LC-MS/MS analysis; assay type: ADME, organism-based; details: in vivo
[19] = test system: Mus musculus; experiment: Apparent unbound clearance in NMRI/ICR CD-1 mouse at 50 mg/kg, sc by LC-MS/MS analysis; assay type: ADME, organism-based; details: in vivo
[20] = test system: Escherichia coli; experiment: Antibacterial activity against Escherichia coli infected in cyclophosphamide-induced NMRI/ICR CD-1 mouse model of neutropenic thigh infection assessed as reduction in thigh bacterial load at 50 mg/kg, sc measured after 22 hrs relative to control; assay type: functional
[21] = mouse, in vivo, sc, 50 mg/kg
[22] = physchem; details: DMSO, pH 4
Description: Solubility of the compound in DMSO at pH 4 incubated for 24 hrs by LC-UV method

Compound | MIC [1] [µg/mL] | ΔTm [2] [°C] | ΔTm [3] [°C] | MIC [4] [µg/mL] | MIC [5] [µg/mL] | MIC [6] [µg/mL] | MIC [7] [µg/mL] | solubility at 24 h [8] [µg/mL] | logD [9] | solubility at 24 h [10] [µg/mL] | solubility at 24 h [22] [µg/mL] | other results
COc1ccc(-c2cn3c(n2)CN(CC[C@](C)(C(=O)NO)S(C)(=O)=O)C3=O)c(F)c1 | > 32 | 6 | 6.9 | 4 (≈ 9.08 µM) | 8 (≈ 18.2 µM) | 16 (≈ 36.3 µM) | > 32 | – | – | – | – | –
COc1ccc(-c2cn(CC[C@@](C)(C(=O)NO)S(C)(=O)=O)c(=O)o2)c(F)c1 | > 32 | 1.9 | 3.7 | > 32 | 16 (≈ 39.8 µM) | > 32 | > 32 | – | – | – | – | –
COc1ccc(-c2cn(CC[C@](C)(C(=O)NO)S(C)(=O)=O)c(=O)o2)c(F)c1 | 8 (≈ 19.9 µM) | 5.2 | 9.9 | 8 (≈ 19.9 µM) | 1 (≈ 2.49 µM) | 16 (≈ 39.8 µM) | 8 (≈ 19.9 µM) | – | – | – | – | –
COc1ccc(-c2ccc3c(c2)CN(CC[C@](C)(C(=O)NO)S(C)(=O)=O)C3=O)c(F)c1 | 2 (≈ 4.44 µM) | 9.1 | 11 | ≤ 0.06 | 0.25 (≈ 0.555 µM) | ≤ 0.06 | 2 (≈ 4.44 µM) | 5 (≈ 11.1 µM) | 1.9 | 22 (≈ 48.8 µM) | – | –
C[C@@](CCN1Cc2cc(C#CC#CC3(CO)CC3)cn2C1=O)(C(=O)NO)S(C)(=O)=O | 0.5 (≈ 1.15 µM) | 9.9 | 12.5 | 0.25 (≈ 0.577 µM) | – | 1 (≈ 2.31 µM) | 1 (≈ 2.31 µM) | – | – | – | – | fold change (FC) [11]: 0.8; Fu [12]: 0.085%; Cmax [13]: 20200 ng/mL; fold change (FC) [14]: 1; AUC(0-t) at 24 h [15]: 33000 ng·h/mL; Tmax [16]: 30 min; fold change (FC) [17]: 1.5; CL/F [18]: 25.1 mL/min/kg; CLu/F [19]: 295 mL/min/kg; fold change (FC) [20]: 2.1; fAUC [21]: 2810 ng·h/mL
C[C@@](CCN1Cc2cc(C#CC#C[C@H]3C[C@@H]3CO)sc2C1=O)(C(=O)NO)S(C)(=O)=O | 0.5 (≈ 1.11 µM) | 12.2 | 15 | 0.15 (≈ 0.333 µM) | – | 0.25 (≈ 0.555 µM) | 0.5 (≈ 1.11 µM) | 603 (≈ 1340 µM) | 1.3 | > 760 | 522 (≈ 1160 µM) | –
C[C@@](CCN1Cc2cc(C#Cc3ccc(COC(=O)N4CCC(O)CC4)cc3)cn2C1=O)(C(=O)NO)S(C)(=O)=O | 2 (≈ 3.49 µM) | 11.8 | 14.2 | 0.25 (≈ 0.437 µM) | – | 0.5 (≈ 0.873 µM) | 2 (≈ 3.49 µM) | 15 (≈ 26.2 µM) | 1.7 | 251 (≈ 438 µM) | < 1 | –
C[C@@](CCN1Cc2cc(C#Cc3ccc(C4(O)COC4)cc3)cn2C1=O)(C(=O)NO)S(C)(=O)=O | 0.5 (≈ 1.03 µM) | 10.8 | 13 | 0.12 (≈ 0.246 µM) | – | 0.5 (≈ 1.03 µM) | 1 (≈ 2.05 µM) | > 820 | 1.2 | > 820 | 195 (≈ 400 µM) | –
